Assay results reported in patent publication US8680012B2, “4-phenyl-pyrane-3,5-diones,4-phenyl-thiopyrane-3,6-diones and cyclohexanetriones as novel herbicides” (Syngenta Crop Protection LLC, priority 2006, dated 2014).

What was measured:
Type in all cases: in vivo
[1] = system: Avena fatua (AVEFA); assay: Example A pre-emergence herbicidal activity, glasshouse pot test; settings: 480 h, rate 250 g/ha, evaluated 20 days after spraying, read-out: Pre-emergence activity AVEFA (100=total damage to plant; 0=no damage to plant)
Protocol: (§1) Seeds of a variety of test species were sown in standard soil in pots. After cultivation for one day (pre-emergence) or after 10 days cultivation (post-emergence) under controlled conditions in a glasshouse, the plants were sprayed with an aqueous spray solution derived from the formulation of the technical active ingredient in 0.6 ml acetone and 45 ml formulation solution containing 10.6% Emulsogen EL (Registry number 61791-12-6), 42.2% N-methylpyrrolidone, 42.2% dipropylene glycol monomethyl ether (Registry number 34590-94-8) and 0.2% X-77 (Registry number 11097-66-8). The test plants were then grown in a greenhouse under optimum conditions until, 15 days later for post-emergence and 20 days for pre-emergence, the test was evaluated (100=total damage to plant; 0=no damage to plant).
(§2) Alopecurus myosuroides (ALOMY), Avena fatua (AVEFA), Lolium perenne (LOLPE), Setaria faberi (SETFA), Digitaria sanguinalis (DIGSA), Echinochloa crus-galli (ECHCG)

[2] = system: Alopecurus myosuroides (ALOMY); assay: as above; settings: 480 h, rate 250 g/ha, evaluated 20 days after spraying, read-out: Pre-emergence activity ALOMY (100=total damage to plant; 0=no damage to plant)
Protocol: as §1, §2

[3] = system: Setaria faberi (SETFA); assay: as above; settings: 480 h, rate 250 g/ha, evaluated 20 days after spraying, read-out: Pre-emergence activity SETFA (100=total damage to plant; 0=no damage to plant)
Protocol: as §1, §2

[4] = system: Echinochloa crus-galli (ECHCG); assay: as above; settings: 480 h, rate 250 g/ha, evaluated 20 days after spraying, read-out: Pre-emergence activity ECHCG (100=total damage to plant; 0=no damage to plant)
Protocol: as §1, §2

[5] = system: Digitaria sanguinalis (DIGSA); assay: as above; settings: 480 h, rate 250 g/ha, evaluated 20 days after spraying, read-out: Pre-emergence activity DIGSA (100=total damage to plant; 0=no damage to plant)
Protocol: as §1, §2

[6] = system: Lolium perenne (LOLPE); assay: as above; settings: 480 h, rate 250 g/ha, evaluated 20 days after spraying, read-out: Pre-emergence activity LOLPE (100=total damage to plant; 0=no damage to plant)
Protocol: as §1, §2

[7] = system: Avena fatua (AVEFA); assay: Example A post-emergence herbicidal activity, glasshouse pot test; settings: 360 h, rate 125 g/ha, evaluated 15 days after spraying, read-out: Post-emergence activity AVEFA (100=total damage to plant; 0=no damage to plant)
Protocol: as §1, §2

[8] = system: Alopecurus myosuroides (ALOMY); assay: as above; settings: 360 h, rate 125 g/ha, evaluated 15 days after spraying, read-out: Post-emergence activity ALOMY (100=total damage to plant; 0=no damage to plant)
Protocol: as §1, §2

[9] = system: Setaria faberi (SETFA); assay: as above; settings: 360 h, rate 125 g/ha, evaluated 15 days after spraying, read-out: Post-emergence activity SETFA (100=total damage to plant; 0=no damage to plant)
Protocol: as §1, §2

[10] = system: Echinochloa crus-galli (ECHCG); assay: as above; settings: 360 h, rate 125 g/ha, evaluated 15 days after spraying, read-out: Post-emergence activity ECHCG (100=total damage to plant; 0=no damage to plant)
Protocol: as §1, §2

[11] = system: Digitaria sanguinalis (DIGSA); assay: as above; settings: 360 h, rate 125 g/ha, evaluated 15 days after spraying, read-out: Post-emergence activity DIGSA (100=total damage to plant; 0=no damage to plant)
Protocol: as §1, §2

[12] = system: Lolium perenne (LOLPE); assay: as above; settings: 360 h, rate 125 g/ha, evaluated 15 days after spraying, read-out: Post-emergence activity LOLPE (100=total damage to plant; 0=no damage to plant)
Protocol: as §1, §2

[13] = system: Avena fatua (AVEFA); assay: Example B pre-emergence herbicidal activity, glasshouse pot test; settings: 312 h, rate 1000 g/ha, evaluated after 13 days, read-out: Pre-emergence activity AVEFA (100=total damage to plant; 0=no damage to plant)
Method in brief: (§3)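 Damage rating, 0–100, at 13 d after application. Spray solution: a.i. in acetone/water (50:50), 0.5% Tween 20. Applied 1 d after sowing or at 8 d growth; pots held at 24/16 °C, 14 h light, 65% humidity.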

[14] = system: Alopecurus myosuroides (ALOMY); assay: as above; settings: 312 h, rate 1000 g/ha, evaluated after 13 days, read-out: Pre-emergence activity ALOMY (100=total damage to plant; 0=no damage to plant)
Method in brief: as §3

[15] = system: Setaria faberi (SETFA); assay: as above; settings: 312 h, rate 1000 g/ha, evaluated after 13 days, read-out: Pre-emergence activity SETFA (100=total damage to plant; 0=no damage to plant)
Method in brief: as §3

[16] = system: Echinochloa crus-galli (ECHCG); assay: as above; settings: 312 h, rate 1000 g/ha, evaluated after 13 days, read-out: Pre-emergence activity ECHCG (100=total damage to plant; 0=no damage to plant)
Method in brief: as §3

[17] = system: Amaranthus retroflexus (AMARE); assay: as above; settings: 312 h, rate 1000 g/ha, evaluated after 13 days, read-out: Pre-emergence activity AMARE (100=total damage to plant; 0=no damage to plant)
Method in brief: as §3

[18] = system: Solanum nigrum (SOLNI); assay: as above; settings: 312 h, rate 1000 g/ha, evaluated after 13 days, read-out: Pre-emergence activity SOLNI (100=total damage to plant; 0=no damage to plant)
Method in brief: as §3

[19] = system: Avena fatua (AVEFA); assay: Example B post-emergence herbicidal activity, glasshouse pot test; settings: 312 h, rate 1000 g/ha, evaluated after 13 days, read-out: Post-emergence activity AVEFA (100=total damage to plant; 0=no damage to plant)
Method in brief: as §3

[20] = system: Alopecurus myosuroides (ALOMY); assay: as above; settings: 312 h, rate 1000 g/ha, evaluated after 13 days, read-out: Post-emergence activity ALOMY (100=total damage to plant; 0=no damage to plant)
Method in brief: as §3

[21] = system: Setaria faberi (SETFA); assay: as above; settings: 312 h, rate 1000 g/ha, evaluated after 13 days, read-out: Post-emergence activity SETFA (100=total damage to plant; 0=no damage to plant)
Method in brief: as §3

[22] = system: Echinochloa crus-galli (ECHCG); assay: as above; settings: 312 h, rate 1000 g/ha, evaluated after 13 days, read-out: Post-emergence activity ECHCG (100=total damage to plant; 0=no damage to plant)
Method in brief: as §3

[23] = system: Amaranthus retroflexus (AMARE); assay: as above; settings: 312 h, rate 1000 g/ha, evaluated after 13 days, read-out: Post-emergence activity AMARE (100=total damage to plant; 0=no damage to plant)
Method in brief: as §3

[24] = system: Solanum nigrum (SOLNI); assay: as above; settings: 312 h, rate 1000 g/ha, evaluated after 13 days, read-out: Post-emergence activity SOLNI (100=total damage to plant; 0=no damage to plant)
Method in brief: as §3

For `Cc1ccc(-c2ccc(Cl)c(F)c2)cc1C1=C(O)C(C)(C)OC(C)(C)C1=O` [Compound A-47], the pest or weed control at 250 g/ha [1] was 20%, the pest or weed control at 250 g/ha [2] was 30% and the pest or weed control at 250 g/ha [3] was 60%. It also gave a pest or weed control at 250 g/ha [4] of 70%, a pest or weed control at 250 g/ha [5] of 70% and a pest or weed control at 250 g/ha [6] of 30%. It also gave a pest or weed control at 125 g/ha [7] of 90%, a pest or weed control at 125 g/ha [8] of 90% and a pest or weed control at 125 g/ha [9] of 50%. The pest or weed control at 125 g/ha [10] was 100%, the pest or weed control at 125 g/ha [11] was 80% and the pest or weed control at 125 g/ha [12] was 70%.

`CCc1ccc(-c2ccc(Cl)cc2)cc1C1=C(O)C(C)(C)[S+]([O-])C(C)(C)C1=O` (stereo not drawn) [Compound C-2] gave a pest or weed control at 250 g/ha [1] of 10%, a pest or weed control at 250 g/ha [2] of 10% and a pest or weed control at 250 g/ha [3] of 70%. For the same compound, the pest or weed control at 250 g/ha [4] was 100%, the pest or weed control at 250 g/ha [5] was 100% and the pest or weed control at 250 g/ha [6] was 10%. The pest or weed control at 125 g/ha [7] was 70%, the pest or weed control at 125 g/ha [8] was 70% and the pest or weed control at 125 g/ha [9] was 90%. It also gave a pest or weed control at 125 g/ha [10] of 100%, a pest or weed control at 125 g/ha [11] of 90% and a pest or weed control at 125 g/ha [12] of 60%.

`Cc1ccc(-c2ccc(Oc3ccccc3)cc2)cc1C1=C(O)C(C)(C)OC(C)(C)C1=O` [Compound A-16] gave a pest or weed control at 1000 g/ha [13] of 20%, a pest or weed control at 1000 g/ha [14] of 30% and a pest or weed control at 1000 g/ha [15] of 100%. It also gave a pest or weed control at 1000 g/ha [16] of 100%, a pest or weed control at 1000 g/ha [17] of 0% and a pest or weed control at 1000 g/ha [18] of 0%. It also gave a pest or weed control at 1000 g/ha [19] of 30%, a pest or weed control at 1000 g/ha [20] of 30% and a pest or weed control at 1000 g/ha [21] of 100%. For the same compound, the pest or weed control at 1000 g/ha [22] was 100%, the pest or weed control at 1000 g/ha [23] was 40% and the pest or weed control at 1000 g/ha [24] was 10%.
